Experimental data from PubChem BioAssay AID1963428 (Molecular Pharmacology Branch, DTP, NCI, 2024).
Values joined by “and” are separate entries in the source; they are usually repeats but may differ in a detail not shown here. Identical values can stand only once.

Tested on: 171881-019-R-J1-PDC complex spheroid growth, % test/control
Assay: Anticancer human tumor 171881-019-R-J1-PDC patient-derived invasive breast carcinoma cell line growth inhibition [Asc]
Details: for viability, T/C: stronger effect = lower value
Experimental: Multicellular complex tumor spheroid response to apoptosis pathway targeting inhibitors Alrizomadlin, Pelcitoclax, and Dasminapant in combination with a variety of drugs and investigational agents in selected tumor cell lines
The MDM2 inhibitor alrizomadlin, the Bcl-2/Bcl-xL inhibitor pelcitoclax, and the IAPs inhibitor dasminapant were evaluated both individually and in combination with standard of care and investigational anticancer small molecules within a complex spheroid model of solid tumors. . Complex spheroids include a stromal component modeled by human endothelial cells (HUVEC) and fibroblasts modeled by human mesenchymal stem cells (MSCs). The concentration ranges selected for each drug and investigational agent were based upon clinically achievable concentrations if the clinical Cmax of the agent was known.
Compounds. The drugs and investigational agents: alrizomadlin (APG-115; NSC831270), pelcitoclax (APG-1252; NSC835773), dasminapant (APG-1387;NSC834197), TAK-243 (NSC785004), copanlisib (NSC809693), olaparib (NSC753686), talazoparib (NSC767125), cobimetinib (NSC 768068), eltanexor (KPT-8602, NSC 794443), abemaciclib (NSC 768073), sotorasib (NSC818433), adagrasib (NSC 831453), MRTX-1133 (NSC 836407), Iadademestat (ORY1001, NSC 806812), and RMC-4630 (NSC839698), were obtained from the NCI Developmental Therapeutics Program Chemical Repository. The FDA-approved anticancer drug set is available from the Developmental Therapeutics Program at https://dtp.cancer.gov/organization/dscb/obtaining/available plates.htm. […] The stock solutions were prepared in dimethyl sulfoxide (DMSO, Sigma-Aldrich, St. Louis, MO, cat. D2650) at 800-fold the tested concentration and stored at -70 degrees C prior to their use. All drugs and investigational agents were tested over a range starting from a high concentration at or near the clinical Cmax and decreasing in half-log increments. If the clinical Cmax for an agent had not been determined, the highest concentration tested was 10 microM.
The patient-derived cancer (PDC) cell lines include five colon adenocarcinomas: 186277-243-T-J2-PDC, 616215-338-R-J1-PDC, 439559-082-T-J2-PDC, 463943-066-T-J2-PDC, and 519858-162-T-J1-PDC; three pancreatic carcinomas: 323965-272-R-J2-PDC, 521955-158-R6-J3-PDC, and 521955-158-R2-J5-PDC; two uterine sarcomas: 327498-152-R-J2-PDC and 993429-296-R-J1-PDC; two rhabdomyosarcomas: 755483-174-R-J1-PDC and 772245-204-R-J1-PDC; two soft tissue sarcomas: 126254-015-R-J1-PDC and 494315-158-R-J1-PDC; two malignant fibrous histiocytomas: 317291-083-R-J1-PDC and 596521-263-R-J1-PDC; two breast carcinomas: 171881-019-R-J1-PDC and 885512-296-R-J2-PDC; and one ovarian carcinoma: 6556581-035-R-J-PDC were obtained from the NCI PDMR, (https://pdmr.cancer.gov). The established cell lines HSSY-2 synovial sarcoma (RRID:CVCL 8719), SYO-1 synovial sarcoma (RRID:CVCL_7146), MPNST malignant peripheral neural sheath tumor were obtained from the Sloan Kettering Institute. The following established cell lines were purchased from the American Type Culture Collection (ATCC, Manassas, VA), Sor the received from the NCI repository:, PANC-1 pancreatic carcinoma (CRL-1469, RRID:CVCL_0480), OVCAR-5 ovarian carcinoma (RRID:CVCL_1628), OVCAR-8 ovarian carcinoma (RRID:CVCL_1629), , MCF-7 breast carcinoma (CRL-12584, RRID:CVCL_0031), MDA-MB-231 breast carcinoma (CRL-12532, RRID:CVCL_0062), NCI-H1876 small cell lung carcinoma (CRL-5902, RRID:CVCL_1503), NCI-H510A small cell lung carcinoma (HTB-184, RRID:CVCL_1565), NCI-H1417 (CRL-5869, RRID:CVCL_1469), and NCI-H196 small cell lung carcinoma (CRL-5823, RRID:CVCL_1509). Dr. Peter Houghton (Greehey Children's Cancer Research Institute, University of Texas Health Science Center, San Antonio, TX) provided Rh-18 rhabdomyosarcoma (RRID:CVCL_1659). Pooled donor human umbilical vein endothelial cells (HUVEC, Lonza, cat. CC-2519) and human mesenchymal stem cells (hMSC, Lonza, cat. PT-2501) were purchased from Lonza (Walkersville, MD).
Cell Culture. […]
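Wherever viability, T/C is given: spheroids exposed to compounds for 7 days.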

O=C(c1cc(Cc2n[nH]c(=O)c3ccccc23)ccc1F)N1CCN(C(=O)C2CC2)CC1 + CNC(C)C(=O)NC1CN(S(=O)(=O)c2cccc(S(=O)(=O)N3CCC4CCC(C(=O)NC(c5ccccc5)c5ccccc5)N4C(=O)C(NC(=O)C(C)NC)C3)c2)CCC2CCC(C(=O)NC(c3ccccc3)c3ccccc3)N2C1=O was tested, and the IC50 (curve of first compound, second compound 0.01 µM) was > 10000 nM, the IC50 (curve of first compound, second compound 0.0316 µM) was > 10000 nM and the IC50 (curve of first compound, second compound 0.1 µM) was > 10000 nM. The IC50 (curve of first compound, second compound 0.316 µM) was > 10000 nM, the IC50 (curve of first compound, second compound 1 µM) was > 10000 nM and the viability, T/C (second compound 0.01 µM, first compound 0.0316 µM) was 101%. For the same compound, the viability, T/C (second compound 0.01 µM, first compound 0.1 µM) was 107%, the viability, T/C (second compound 0.01 µM, first compound 0.316 µM) was 109% and the viability, T/C (second compound 0.01 µM, first compound 1 µM) was 118%. The viability, T/C (second compound 0.01 µM, first compound 3.16 µM) was 104%, the viability, T/C (second compound 0.01 µM, first compound 10 µM) was 128% and the viability, T/C (second compound 0.0316 µM, first compound 0.0316 µM) was 100%. For the same compound, the viability, T/C (second compound 0.0316 µM, first compound 0.1 µM) was 105%, the viability, T/C (second compound 0.0316 µM, first compound 0.316 µM) was 93.3% and the viability, T/C (second compound 0.0316 µM, first compound 1 µM) was 128%. It also gave a viability, T/C (second compound 0.0316 µM, first compound 3.16 µM) of 107%, a viability, T/C (second compound 0.0316 µM, first compound 10 µM) of 106% and a viability, T/C (second compound 0.1 µM, first compound 0.0316 µM) of 108%. The viability, T/C (second compound 0.1 µM, first compound 0.1 µM) was 89.4%, the viability, T/C (second compound 0.1 µM, first compound 0.316 µM) was 106% and the viability, T/C (second compound 0.1 µM, first compound 1 µM) was 104%. For the same compound, the viability, T/C (second compound 0.1 µM, first compound 3.16 µM) was 105%, the viability, T/C (second compound 0.1 µM, first compound 10 µM) was 112% and the viability, T/C (second compound 0.316 µM, first compound 0.0316 µM) was 95%. For the same compound, the viability, T/C (second compound 0.316 µM, first compound 0.1 µM) was 96.2%, the viability, T/C (second compound 0.316 µM, first compound 0.316 µM) was 99.7% and the viability, T/C (second compound 0.316 µM, first compound 1 µM) was 119%. For the same compound, the viability, T/C (second compound 0.316 µM, first compound 3.16 µM) was 114%, the viability, T/C (second compound 0.316 µM, first compound 10 µM) was 122% and the viability, T/C (second compound 1 µM, first compound 0.0316 µM) was 116%. The viability, T/C (second compound 1 µM, first compound 0.1 µM) was 113%, the viability, T/C (second compound 1 µM, first compound 0.316 µM) was 89.4% and the viability, T/C (second compound 1 µM, first compound 1 µM) was 111%. It also gave a viability, T/C (second compound 1 µM, first compound 3.16 µM) of 103% and a viability, T/C (second compound 1 µM, first compound 10 µM) of 128%.

NC1CCC(NC2CC2c2ccccc2)CC1 (configuration not stated) + CCN1C(C(=O)NC23CCC(C(=O)O)(CC2)CC3)C(c2cccc(Cl)c2F)C2(C(=O)Nc3cc(Cl)ccc32)C12CCCCC2 was tested, and the IC50 (curve of first compound, second compound 0.03 µM) was > 100 nM, the IC50 (curve of first compound, second compound 0.0949 µM) was > 100 nM and the IC50 (curve of first compound, second compound 0.3 µM) was > 100 nM. For the same compound, the IC50 (curve of first compound, second compound 0.949 µM) was > 100 nM, the IC50 (curve of first compound, second compound 3 µM) was > 100 nM and the viability, T/C (second compound 0.03 µM, first compound 0.000316 µM) was 123%. The viability, T/C (second compound 0.03 µM, first compound 0.001 µM) was 120%, the viability, T/C (second compound 0.03 µM, first compound 0.00316 µM) was 111% and the viability, T/C (second compound 0.03 µM, first compound 0.01 µM) was 106%. The viability, T/C (second compound 0.03 µM, first compound 0.0316 µM) was 110%, the viability, T/C (second compound 0.03 µM, first compound 0.1 µM) was 106% and the viability, T/C (second compound 0.0949 µM, first compound 0.000316 µM) was 112%. It also gave a viability, T/C (second compound 0.0949 µM, first compound 0.001 µM) of 94.4%, a viability, T/C (second compound 0.0949 µM, first compound 0.00316 µM) of 109% and a viability, T/C (second compound 0.0949 µM, first compound 0.01 µM) of 118%. For the same compound, the viability, T/C (second compound 0.0949 µM, first compound 0.0316 µM) was 113%, the viability, T/C (second compound 0.0949 µM, first compound 0.1 µM) was 103% and the viability, T/C (second compound 0.3 µM, first compound 0.000316 µM) was 112%. For the same compound, the viability, T/C (second compound 0.3 µM, first compound 0.001 µM) was 120%, the viability, T/C (second compound 0.3 µM, first compound 0.00316 µM) was 127% and the viability, T/C (second compound 0.3 µM, first compound 0.01 µM) was 107%. For the same compound, the viability, T/C (second compound 0.3 µM, first compound 0.0316 µM) was 125%, the viability, T/C (second compound 0.3 µM, first compound 0.1 µM) was 116% and the viability, T/C (second compound 0.949 µM, first compound 0.000316 µM) was 107%. It also gave a viability, T/C (second compound 0.949 µM, first compound 0.001 µM) of 114%, a viability, T/C (second compound 0.949 µM, first compound 0.00316 µM) of 110% and a viability, T/C (second compound 0.949 µM, first compound 0.01 µM) of 121%. The viability, T/C (second compound 0.949 µM, first compound 0.0316 µM) was 106%, the viability, T/C (second compound 0.949 µM, first compound 0.1 µM) was 115% and the viability, T/C (second compound 3 µM, first compound 0.000316 µM) was 102%. It also gave a viability, T/C (second compound 3 µM, first compound 0.001 µM) of 118%, a viability, T/C (second compound 3 µM, first compound 0.00316 µM) of 110% and a viability, T/C (second compound 3 µM, first compound 0.01 µM) of 109%. The viability, T/C (second compound 3 µM, first compound 0.0316 µM) was 110% and the viability, T/C (second compound 3 µM, first compound 0.1 µM) was 107%.

For CCN1CCN(Cc2ccc(Nc3ncc(F)c(-c4cc(F)c5nc(C)n(C(C)C)c5c4)n3)nc2)CC1, the viability, T/C (compound 0.00316 µM) was 97.1% and 108% and 114%, the viability, T/C (compound 0.01 µM) was 79.1% and 101% (2×) and the viability, T/C (compound 0.0316 µM) was 97.8% and 111% and 105%. For the same compound, the viability, T/C (compound 0.1 µM) was 109% and 104% and 128%, the viability, T/C (compound 0.316 µM) was 110% and 120% and 131% and the viability, T/C (compound 1 µM) was 130% and 141% and 128%. For the same compound, the IC50 (curve of compound) was > 1000 nM.
